Assay results taken from ChEMBL document CHEMBL1201862, “PubChem BioAssay data set” (2004).
Active and inactive are the calls of the source. Cut-off read from the data, not from the text of the source, for most assays here: actives have a measured EC50 and inactives only a lower limit.

Experiments:
[1] = target: Major prion protein (Homo sapiens, UniProt P04156); type: functional, cell-based
[2] = cells
[3] = NIH-3T3 fibroblast cytotoxicity, dose response, cytotoxicity control, cell-based, fluorescence, Alamar Blue, secondary assay (AID 2327); type: functional;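 note: NIH-3T3 mouse fibroblasts cultured with fluconazole at 8 µg/mL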
[4] = inhibitors of firefly luciferase expression or activity, dose response, H4 neuroglioma cells, luminescence (AID 1990); type: functional, cell-based
[5] = target: T1, Aminopeptidase N (Plasmodium falciparum FcB1/Columbia, UniProt O96935); experiment: P. falciparum M1AAP inhibitors, biochemical, fluorogenic H-Leu-NHMec substrate, 1536-well (AID 1445); design: species or system Plasmodium falciparum 3D7, 3D7
T1 sequence (O96935 whole entry): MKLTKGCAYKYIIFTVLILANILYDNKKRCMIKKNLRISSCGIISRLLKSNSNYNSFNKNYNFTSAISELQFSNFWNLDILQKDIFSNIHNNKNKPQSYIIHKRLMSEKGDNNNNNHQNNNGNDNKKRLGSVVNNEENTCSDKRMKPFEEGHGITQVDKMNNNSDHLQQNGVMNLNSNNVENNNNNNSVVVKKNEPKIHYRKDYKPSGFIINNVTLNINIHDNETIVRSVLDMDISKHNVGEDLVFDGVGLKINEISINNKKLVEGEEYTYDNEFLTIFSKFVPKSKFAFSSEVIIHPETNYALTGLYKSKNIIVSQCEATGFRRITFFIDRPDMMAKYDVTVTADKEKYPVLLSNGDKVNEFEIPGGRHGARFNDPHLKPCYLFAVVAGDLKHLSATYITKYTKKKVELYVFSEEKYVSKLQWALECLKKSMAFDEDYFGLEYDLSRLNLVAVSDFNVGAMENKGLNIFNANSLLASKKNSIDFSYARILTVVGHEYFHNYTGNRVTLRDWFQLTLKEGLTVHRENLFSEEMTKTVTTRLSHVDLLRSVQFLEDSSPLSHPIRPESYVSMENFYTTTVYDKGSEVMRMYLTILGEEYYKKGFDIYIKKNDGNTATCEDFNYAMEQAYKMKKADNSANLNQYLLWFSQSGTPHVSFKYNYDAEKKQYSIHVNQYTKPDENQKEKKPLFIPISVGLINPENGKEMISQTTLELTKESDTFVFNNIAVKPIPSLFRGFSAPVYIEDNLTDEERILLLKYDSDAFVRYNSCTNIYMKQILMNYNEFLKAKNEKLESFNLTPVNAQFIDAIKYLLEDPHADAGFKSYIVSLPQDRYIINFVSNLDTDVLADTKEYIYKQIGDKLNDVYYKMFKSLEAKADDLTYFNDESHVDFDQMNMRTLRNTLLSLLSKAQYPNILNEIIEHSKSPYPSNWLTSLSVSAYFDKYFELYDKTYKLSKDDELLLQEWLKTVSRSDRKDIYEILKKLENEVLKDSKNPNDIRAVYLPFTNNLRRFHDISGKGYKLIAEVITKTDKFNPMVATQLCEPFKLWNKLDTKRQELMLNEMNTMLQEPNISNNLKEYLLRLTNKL

[6] = test system: Streptococcus sp. 'group A'; experiment: growth inhibition of control SK(-) GAS strain, dose response, counter-screen for streptokinase expression inhibitor project, luminescence, kanamycin, BacTiterGlo, confirmation (AID 1900); type: functional, organism-based
[7] = test system: BJ; experiment: cytotoxicity toward BJ-TERT fibroblasts, dose response, cell-based, RAS-independent, luminescence (AID 1933); type: functional; settings: Homo sapiens
[8] = cells; type: functional, cell-based
[9] = Luminescence Cell-Based Dose Response HTS to Identify Inhibitors of 5'UTR Stem-Loop Driven Prion Protein mRNA Translation in H4 Neuroglioblastoma Cells. [Related pubchem assays: 1827 (Project Summary), 1813 (Primary HTS)]; type: functional
[10] = inhibitors of SNCA 5'UTR-driven reporter translation, confirmation, H4 neuroglioma cells, luminescence (AID 1988); type: functional, cell-based
[11] = test system: BJ; experiment: cells; type: functional, cell-based; settings: Homo sapiens
[12] = C. albicans growth with fluconazole, confirmation, fluorescence, retest (AID 2467); type: functional, cell-based
[13] = inhibitors of intracellular T. cruzi replication, confirmation, NIH3T3 host cells, beta-gal luminescence (AID 2044); type: functional, cell-based;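 note: intracellular parasites grown in NIH/3T3 mouse fibroblasts as host cells; luminescent beta-galactosidase reporter signal from transgenic T. cruzi replicating inside host cells; inhibitors lower the luminescence signal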
[14] = cells; type: functional, cell-based; remark: listed apart in the source
[15] = target: T2, Calpain-2 catalytic subunit (Sus scrofa, UniProt P43367); experiment: pig calpain II inhibitor potency, dose response, biochemical, fluorogenic peptide substrate (AID 1420); type: functional
T2 sequence (P43367 whole entry): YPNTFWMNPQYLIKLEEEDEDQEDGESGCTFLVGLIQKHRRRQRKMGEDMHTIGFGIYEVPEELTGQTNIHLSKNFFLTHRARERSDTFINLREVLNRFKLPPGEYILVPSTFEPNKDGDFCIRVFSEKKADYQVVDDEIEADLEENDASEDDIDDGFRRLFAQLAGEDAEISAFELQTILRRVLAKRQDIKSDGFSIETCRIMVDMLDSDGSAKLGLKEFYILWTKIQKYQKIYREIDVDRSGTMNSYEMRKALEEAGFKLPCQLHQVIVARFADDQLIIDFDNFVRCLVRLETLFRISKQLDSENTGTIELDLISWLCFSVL

[16] = cytotoxicity toward NIH3T3 fibroblasts, dose response, counter-screen, cell-based, ATP luminescence, mouse fibroblasts (AID 2010); type: functional;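 note: cells exposed to compound for about 90 hours before reading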
[17] = test system: BJ; experiment: cytotoxicity toward BJ-TERT-LT-ST fibroblasts, dose response, cell-based, RAS-independent, luminescence (AID 1935); type: functional; settings: Homo sapiens;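 note: BJ fibroblasts immortalized with TERT plus LT and ST oncogenes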
[18] = cytotoxicity toward DRD oncogenic fibroblasts, dose response, cell-based, non-viral oncogenic, luminescence (AID 1934); type: functional; settings: Homo sapiens
[19] = test system: Streptococcus; experiment: Group A Streptococcus viability loss, dose response, counter-screen for streptokinase expression inhibitor project, luminescence, BacTiterGlo (AID 1915); type: functional, organism-based;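 note: potency for reduction of bacterial viability or growth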
[20] = human group III sPLA2 inhibitors, dose response, biochemical, QFRET, IC50 (AID 743457);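 note: green fluorescence rise as the enzyme cleaves BODIPY PC-A2 in liposomes; potency for inhibition of the enzyme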

CCc1nc(SCC(=O)N2c3ccccc3Sc3ccccc32)c2ccccc2n1
IC50 [1]: 1.84 µM (active)
IC50 [2]: > 138 µM (inactive)

Oc1ccccc1N=Nc1ccccc1O
EC50 [3]: > 160 µM (inactive)
EC50 [4]: 14.7 µM (active)
IC50 [5]: 22.1 µM (active)
EC50 [6]: 0.6 µM (active)
EC50 [7]: 0.626 µM (active)
EC50 [8]: 2.06 µM (active)
EC50 [9]: > 120 µM (not active)
EC50 [10]: 0.13 µM (active)
EC50 [11]: 2.3 µM (inconclusive)
EC50 [12]: 1.38 µM (active)
EC50 [13]: 1.3 µM (active)
EC50 [14]: 12.7 µM (active)
IC50 [15]: > 50 µM (not active)
EC50 [16]: 12.1 µM (active)
EC50 [17]: 3.31 µM (inconclusive)
EC50 [18]: 1.15 µM (active)
EC50 [19]: 8.99 µM (active)
IC50 [20]: > 122 µM (inactive)
